± gives the standard deviation of the averaged measurements.
Assays:
PLX-4720 = compound: CCCS(=O)(=O)Nc1ccc(F)c(C(=O)c2c[nH]c3ncc(Cl)cc23)c1F [PLX-4720]; assay: surviving fraction relative to DMSO-only wells; higher = less growth inhibition; conditions: exposure time: 5 days
Method in brief: (§1)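 After seeding at 250–500 cells per well in 384-well plates and a 24-hour wait, log-phase tumour cell lines were exposed without interruption for five days to inhibitors at 0.5, 1, 5, 10, 50, 100, 500 and 1000 nM. CellTiter-Glo luminescence was recorded after 10 minutes at room temperature. Viability is reported as surviving fraction, the luminescence normalised to the median of DMSO-only wells.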

AZD4547 = compound: COc1cc(CCc2cc(NC(=O)c3ccc(N4CC(C)NC(C)C4)cc3)n[nH]2)cc(OC)c1 [AZD4547]; assay: as above; conditions: exposure time: 5 days
Method in brief: as §1

Test System | surviving fraction (PLX-4720; 0.5 nM) | surviving fraction (PLX-4720; 1 nM) | surviving fraction (PLX-4720; 5 nM) | surviving fraction (PLX-4720; 10 nM) | surviving fraction (PLX-4720; 50 nM) | surviving fraction (PLX-4720; 100 nM) | surviving fraction (PLX-4720; 500 nM) | surviving fraction (PLX-4720; 1000 nM) | surviving fraction (AZD4547; 0.5 nM) | surviving fraction (AZD4547; 1 nM) | surviving fraction (AZD4547; 5 nM) | surviving fraction (AZD4547; 10 nM) | surviving fraction (AZD4547; 50 nM) | surviving fraction (AZD4547; 100 nM) | surviving fraction (AZD4547; 500 nM) | surviving fraction (AZD4547; 1000 nM)
NOS1 BONE | 0.85 ± 0.15 | 1 ± 0.11 | 0.961 ± 0.069 | 0.994 ± 0.2 | 1.17 ± 0.059 | 1.25 ± 0.12 | 1.11 ± 0.12 | 0.911 ± 0.057 | 0.971 ± 0.12 | 1.07 ± 0.13 | 0.913 ± 0.013 | 0.937 ± 0.064 | 0.87 ± 0.093 | 0.824 ± 0.055 | 0.385 ± 0.025 | 0.187 ± 0.036
HCC1806 BREAST | 0.727 ± 0.073 | 0.808 ± 0.067 | 0.861 ± 0.069 | 0.879 ± 0.042 | 0.858 ± 0.09 | 1.02 ± 0.052 | 0.855 ± 0.13 | 0.871 ± 0.076 | 1.04 ± 0.14 | 1.08 ± 0.048 | 1.12 ± 0.063 | 1.14 ± 0.06 | 1.16 ± 0.11 | 1.13 ± 0.05 | 0.996 ± 0.078 | 1 ± 0.17
SG31 HEADNECK | 0.492 ± 0.037 | 0.775 ± 0.056 | 0.765 ± 0.053 | 0.96 ± 0.18 | 0.642 ± 0.068 | 0.843 ± 0.048 | 0.963 ± 0.025 | 1.06 ± 0.12 | 1.21 ± 0.24 | 0.886 ± 0.12 | 0.994 ± 0.15 | 1.01 ± 0.17 | 0.836 ± 0.07 | 0.856 ± 0.12 | 0.883 ± 0.049 | 0.958 ± 0.051
HMLE3 BREAST | 0.225 ± 0.027 | 0.8523 ± 0.007 | 0.721 ± 0.039 | 0.851 ± 0.049 | 0.556 ± 0.041 | 1.03 ± 0.031 | 1.14 ± 0.036 | 1.15 ± 0.085 | 0.986 ± 0.082 | 0.959 ± 0.04 | 0.882 ± 0.05 | 0.79 ± 0.025 | 0.57 ± 0.046 | 0.455 ± 0.053 | 0.418 ± 0.064 | 0.379 ± 0.032
MDAMB361 BREAST | 0.888 ± 0.076 | 0.865 ± 0.035 | 0.8033 ± 0.0065 | 0.792 ± 0.035 | 0.991 ± 0.074 | 0.918 ± 0.097 | 0.96 ± 0.097 | 0.86 ± 0.078 | 0.908 ± 0.033 | 0.925 ± 0.028 | 1.04 ± 0.12 | 0.972 ± 0.064 | 0.967 ± 0.067 | 0.993 ± 0.061 | 0.851 ± 0.035 | 0.76 ± 0.052
